Assay results from patent publication US20070009891A1, “Method for the isolation of expressed sequence tags in plants” (Metapontum Agrobios S.R.L., priority 2003, published 2007).

Columns and labels:
genomic DNA of hard corn = assay: Digestion of genomic DNA with restriction enzymes sensitive to methylation (CfoI, Hpa2, Msp1); set-up: species or system Triticum durum; conditions: seedlings about 21 days after germination; 5-azaC 0.1, 0.3, 0.5, 1 mM vs control
Method: Analyses for correlating the demethylation degree of the DNA with an increase in the undifferentiated gene expression were carried out by digestion of the genomic DNA with restriction enzymes sensitive to methylation, i.e. enzymes which preferentially act on hypomethylated DNA.
Analyses for correlating the demethylation degree of the DNA with an increase in the undifferentiated gene expression were carried out by digesting the genomic DNA with the following restriction enzymes: Cfol, Hpa2, Msp1 (Roche), sensitive to methylation.
For each reaction, about 5 μg of total DNA were digested with 20 units of enzyme in a final volume of 150 μl, for a night at 37° C. Each digestion product was precipitated and resuspended in 30μl of H2O. The digestion mixtures were separated on agarose gel at 0.8% and subjected to horizontal electrophoresis, for a night at […] (Sambrook, J. et al., 1989, Cold Spring Harbor Laboratory Press).

[1] = test system: undifferentiated gene expression in hard corn seedlings; assay: RT-PCR amplification and sequencing of genes expressed in different growth phases, from seedlings germinated with 5-AzaCytidine; set-up: species or system Triticum durum; conditions: MSO germination medium; 0.1-1 mM tested
Excerpt: Furthermore, to confirm the efficiency of the method used, several genes were identified which are expressed in different growth phases of soft corn, of which a large number of sequences are available as this species of corn is more widely studied that hard corn. On the basis of the sequences deposited in data banks (National Center for Biotechnology Information, NCBI; European Bioinformatics Institute, EBI) pairs of oligonucleotides identified in the zones flanking the region encoding the nucleotidic sequence, were prepared, and subsequently used as primers for the amplification of the whole gene being tested. […]
The cDNA inserts were first amplified with the appropriate primers, cloned in the vector p-GEMT and introduced into the competent cells Escherichia coli (E. coli) DH5α. The recombinant clones, containing the expected fragments, were characterized by restriction analysis and their identity was confirmed by effecting sequence reactions carried out using the ABI Prism Big TaqDyeDeoxyTerminator Cycle Sequencing Kit (Applied Biosystems, Nr. 4303149) and analyzed with the automatic ABI 377 DNA Sequencer (Perkin Elmer ABI Prism). […]

hard corn seedlings = assay: Germination of hard corn seeds on MSO medium with 5-azaC: seedling phenotype; format: in vivo, Triticum durum; conditions: increasing concentration of 5-azaC (0.1-1 mM), aerial part and roots, 24° C. in the dark
Method: According to this method, the germination of the seeds is generally effected at a temperature ranging from 20 to 30° C., preferably from 22 to 26° C., in the dark and in the presence of concentrations of 5-azaC ranging from 0.1 mM to 2 mM, preferably from 0.3 mM to 0.5 mM.
Seeds of hard corn (Triticum durum) were sterilized in a solution of ethyl alcohol at 70% for 10 minutes under stirring. After eliminating the ethanol, the seeds were treated with a solution containing sodium hypochlorite (ACE) at 50% and Sodium Dodecyl Sulfate (SDS) at 0.5%, incubated at room temperature for 20 minutes under light stirring.
The seeds were subsequently washed with sterile H2O until the complete removal of the foam (about 7-8 times) and about 15-20 seeds were then placed in a Magenta Box each containing: 30 ml of MSO substrate (Sucrose 15 g/l, Muraschige-Sckug MS salts 2.2 g/l, Thiamin 0.2 mg/l, Myoinositol 50 mg/l, pH 5.6, agar 7 g/l), different concentrations of 5-azac (0.1 mM, 0.3 mM, 0.5 mM and 1 mM) and germinated in a chamber thermostat-regulated at 24° C. in the dark.
Seeds of hard corn left to germinate in MSO medium without 5-azac, were used as a control.

Nc1ncn([C@@H]2O[C@H](CO)[C@@H](O)[C@H]2O)c(=O)n1 [5-azaC, 5-AzaCytidine]
digestion of the genomic DNA by methylation-sensitive restriction enzymes (demethylation degree) (genomic DNA of hard corn): different digestion of the genomic DNA | concentration in the germination medium giving the best results (totipotent gene expression) [1]: 0.3 to 0.5 mM | phenotype of the seedlings compared with control cultivated without 5-azaC (hard corn seedlings): slowing down in the development of the seedlings
